Test results published in patent US20100062987A1, “ANTICONVULSIVE PHARMACEUTICAL COMPOSITIONS” (INSERM (Institut National de la Sante et de la Recherche …, priority 2006, published 2010).

Experiments:
BALB/c mice [1] = assay: Retinal histology / immunolabelling of VGB-treated mice; type: in vivo; settings: VGB 250 mg/kg i.p. daily for 30 days
Description: (§1) BALB/c mice (16 treated, 10 controls) were purchased from Janvier (Le Genest-St-lsle, France) at six weeks. VGB dissolved in 0.9%
(§2) NaCl at 100 mg/m1 was intraperitoneally injected daily for 30 days at a final concentration of 250 mg/kg as described for animal treatment of epilepsy (Andre V, Ferrandon A, Marescaux C, Nehlig A. Vigabatrin protects against hippocampal damage but is not antiepileptogenic in the lithium-pilocarpine model of temporal lobe epilepsy. Epilepsy Res. 2001;47:99-117). This dose was slightly higher than that prescribed to adult patient ([…]), children (100 mg/kg), or infants ([…]) (Bialer M, Johannessen S I, Kupferberg H J et al. Progress report on new antiepileptic drugs: a summary of the Fifth Eilat Conference (EILAT V). Epilepsy Res. 2001;43:11-58).
(§3) Eye cups were fixed overnight at 4° C. in 4% (wt/vol) paraformaldehyde in phosphate buffered saline (PBS) 0.01 M, pH 7.4. After cryoprotection in PBS containing successively 10%, 20% and 30% sucrose at 4° C., the tissue was embedded in OCT (Labonord, Villeneuve d'Ascq, France). Vertical sections (8-10 μm thickness) were permeabilized for 5 minutes in PBS containing 0.1% Triton X-100 (Sigma, St. Louis, Mo.), rinsed, and incubated in PBS containing 1% bovine serum albumin (Eurobio, Les-Ulis, France), 0.1% Tween 20 (Sigma), and 0.1% sodium azide (Merck, Fontenay-Sous-Bois, France) for 2 hours at room temperature. The primary antibody added to the solution was incubated for 2 hours at room temperature. The polycolonal antibodies were directed against the protein kinase C alpha (PKCα) (1:2000, Sigma), VGluT1 (1:2000, Chemicon), Goα (K-20; 1:100, Santa Cruz), calbindin D-28K (1:500, Chemicon), mouse cone arrestin/ Luminaire junior (LUMIj) (1:20,000, ^27). The monoclonal antibodies were directed against Goα (1:2000, Chemicon), bassoon (1:100, StressGen) and calbindin D-28K (1:500, Sigma). After rinses, sections were incubated with the secondary antibody, goat anti-rabbit IgG or rabbit anti-mouse IgG conjugated to either Alexa TM594 or Alexa TM488 (1:500, Molecular Probes, Eugene, Oreg.) for 2 hours. The dye, diamidiphenyl-indole (DAPI) was added to the last incubated solutions. Sections were rinsed, mounted with Fluorsave reagent (Calbiochem, San Diege, Calif.) and viewed with a Leica microscope (LEICA DM 5000B) equipped with a Ropper scientific camera (Photometrics cool SNAP TM FX).

BALB/c mice [2] = assay: Light dependence of the vigabatrin-elicited retinal toxicity (darkness vs 12h light/dark cycle); type: in vivo
Description: as §1, §2, §3
Albino rats only are sensitive to the VGB-elicited retinal toxicity (Butler W H, Ford G P, Newberne J W. A study of the effects of vigabatrin on the central nervous system and retina of Sprague Dawley and Lister-Hooded rats. Toxicol Pathol. 1987;15:143-148). […]

patients = patients under therapeutical treatment; cited from earlier work
rats = settings: cited from earlier work
[3] = animals maintained in a dark room throughout the treatment

In the case of C=CC(N)CCC(=O)O (stereo not shown) [VGB, 4-amino-5-hexenoic acid], the “Areas with a highly disorganized outer nuclear layer (ONL), animals affected” value (BALB/c mice [1]; albino mice) is reported as 5 of 16, the “Cone photoreceptor terminals, cone arrestin and Goα immunolabelling” value (BALB/c mice [1]; mice) is reported as “cone terminals remained in the OPL” and the “Cone photoreceptors, cone arrestin immunolabelling” value (BALB/c mice [1]; mice) is reported as “cone outer segments had disappeared”. For the same compound, the “Contact of rod photoreceptor terminals with postsynaptic neurons, VGLUT1/Goα and bassoon/PKCα double immunolabelling” value (BALB/c mice [1]; mice) was “a few synaptic ribbons were not contacted by a rod bipolar cell dendrite”, the “Horizontal cell dendrites, calbindin immunolabelling” value (BALB/c mice [1]; mice) was “horizontal cells extended their dendrites deep into the ONL” and the “ON bipolar cell dendrites, Goα immunolabelling” value (BALB/c mice [1]; mice) was “extended their dendrites deep into the ONL”. The “Photoreceptor synaptic ribbon, bassoon immunolabelling” value (BALB/c mice [1]; mice) was “punctuate labelling was observed to penetrate deep into the ONL”, the “Photoreceptor synaptic vesicles, VGLUT1 immunolabelling” value (BALB/c mice [1]; mice) was “observed deep into the ONL” and the “Rod and cone ON bipolar cell plasticity, PKCα and Goα double immunolabelling” value (BALB/c mice [1]; mice) was “both rod and cone ON bipolar cells underwent plasticity”. The “GFAP staining of glial Muller cells” value (BALB/c mice [1]; mice, vs control albino mice) was “not increased”, the “Bipolar cell dendritic growth in the ONL” value (BALB/c mice [2]; [3]) was “found not to grow dendrites in the ONL” and the “Photoreceptor terminal withdrawal in the ONL” value (BALB/c mice [2]; [3]) was “did not retract their terminals in the ONL”. For the same compound, the “Other retinal damages like ONL disorganization” value (BALB/c mice [2]; animals maintained in darkness) was “not observed”, the “Bipolar cell dendritic growth and photoreceptor terminal withdrawal” value (BALB/c mice [2]; animals under the 12h light/dark cycle) was “showed the bipolar cell dendritic growth and the photoreceptor terminal withdrawal” and the “Undesirable effects on vision” value (patients) was “irreversible constriction of the visual field”. The Major retinal changes (rats) was “retinal architecture disorganization, a major glial reaction, cone damages and photoreceptor apoptosis”.
